In the supplement of paper PMC10307832:

Experiments:
Assay in all cases: relative viability (nuclei count vs DMSO), 5 days (fraction); higher = more cells survive
[1] = compound: CCC1=CN=CN=C1N2CCN(CC2)CC3=NC4=C(N3)C=C(C=C4)C(F)(F)F + CC(C)C[C@H](NC(=O)[C@H](Cc1ccccc1)NC(=O)c1cnccn1)B(O)O [Bortezomib] (partner 0.002 µM)
How it was run: (§1)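 Relative viability was taken as the ratio of nuclei in treated wells to nuclei in vehicle wells. Lung cancer cell lines in 1536-well plates received compounds by pin tool one day after seeding, either one drug alone or a fixed anchor-drug dose plus five library-drug doses (not always all listed) in √10 steps. Nuclei were counted on 4× images after 5 days of treatment, and values are medians of duplicate plates.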

[2] = compound: CCn1c(-c2nonc2N)nc2cnc(Oc3cccc(NC(=O)c4ccc(OCCN5CCOCC5)cc4)c3)cc21 + CC(C)C[C@H](NC(=O)[C@H](Cc1ccccc1)NC(=O)c1cnccn1)B(O)O [Bortezomib] (partner 0.002 µM)
How it was run: as §1

[3] = compound: CCn1c(-c2nonc2N)nc2cnc(Oc3cccc(NC(=O)c4ccc(OCCN5CCOCC5)cc4)c3)cc21 + C[C@@H](Oc1cc(-c2cnn(C3CCNCC3)c2)cnc1N)c1c(Cl)ccc(F)c1Cl [Crizotinib] (partner 1 µM)
How it was run: as §1

[4] = compound: CCn1c(-c2nonc2N)nc2cnc(Oc3cccc(NC(=O)c4ccc(OCCN5CCOCC5)cc4)c3)cc21 + Cc1nc(Nc2ncc(C(=O)Nc3c(C)cccc3Cl)s2)cc(N2CCN(CCO)CC2)n1 [Dasatinib] (partner 0.075 µM)
How it was run: as §1

Row | Cell Line | relative viability ([1]; first compound 0.04 µM) | relative viability ([1]; first compound 0.1265 µM) | relative viability ([1]; first compound 0.4 µM) | relative viability ([1]; first compound 1.265 µM) | relative viability ([1]; first compound 4 µM) | relative viability ([2]; first compound 0.04 µM) | relative viability ([2]; first compound 0.1265 µM) | relative viability ([2]; first compound 0.4 µM) | relative viability ([2]; first compound 1.265 µM) | relative viability ([2]; first compound 4 µM) | relative viability ([3]; first compound 0.04 µM) | relative viability ([3]; first compound 0.1265 µM) | relative viability ([3]; first compound 0.4 µM) | relative viability ([3]; first compound 1.265 µM) | relative viability ([3]; first compound 4 µM) | relative viability ([4]; first compound 0.04 µM) | relative viability ([4]; first compound 0.1265 µM) | relative viability ([4]; first compound 0.4 µM) | relative viability ([4]; first compound 1.265 µM) | relative viability ([4]; first compound 4 µM)
1 | NCI-H1666 | 0.799 | 0.714 | 0.896 | 0.811 | 0.779 | 0.785 | 1.02 | 0.65 | 0.459 | 0.385 | 1.21 | 1.2 | 1.23 | 0.726 | 0.372 | 0.788 | 0.617 | 0.442 | 0.28 | 0.278
2 | NCI-H2023 | 1.04 | 1.03 | 0.964 | 0.837 | 1.17 | 1.25 | 0.918 | 0.621 | 0.504 | 0.394 | 0.737 | 0.736 | 0.593 | 0.25 | 0.194 | 0.519 | 0.424 | 0.257 | 0.294 | 0.232
3 | NCI-H1755 | 1.02 | 0.882 | 0.953 | 0.816 | 1.06 | 0.97 | 0.781 | 0.649 | 0.533 | 0.512 | 0.911 | 0.94 | 0.845 | 0.795 | 0.776 | 0.373 | 0.257 | 0.15 | 0.206 | 0.186
4 | NCI-H2347 | 1.07 | 0.92 | 0.724 |  | 1.04 | 1.1 | 0.959 | 0.792 | 0.49 | 0.649 | 0.602 | 0.69 | 0.589 | 0.484 | 0.39 | 0.402 | 0.436 | 0.286 | 0.374 | 0.349
5 | ABC-1 | 0.315 | 0.314 | 0.312 | 0.402 | 0.37 | 0.483 | 0.302 | 0.262 | 0.256 | 0.285 | 1.7 | 0.973 | 1 | 0.608 | 0.396 | 0.54 | 0.51 | 0.414 | 0.311 | 0.372
6 | 201T | 1.09 | 1.06 | 1.04 | 1.09 | 1.14 | 1.06 | 1.02 | 1.11 | 1.02 | 1.03 | 1 | 1.02 | 1.03 | 1.03 | 0.964 | 0.644 | 0.682 | 0.443 | 0.588 | 0.506
7 | NCI-H1734 | 0.919 | 0.853 | 0.907 |  | 0.854 | 0.889 | 0.837 | 0.511 | 0.412 | 0.35 | 0.671 | 0.669 | 0.581 | 0.464 | 0.285 | 0.416 | 0.39 | 0.232 | 0.229 | 0.198
8 | NCI-H596 | 1.03 | 1.11 | 0.846 | 0.946 | 1.15 | 0.985 | 0.905 | 0.924 | 0.8 | 0.746 | 0.857 | 0.934 | 0.932 | 0.959 | 1.03 | 0.682 | 0.611 | 0.495 | 0.469 | 0.546
9 | NCI-H1650 | 0.18 | 0.222 | 0.199 | 0.211 | 0.19 | 0.258 | 0.21 | 0.196 | 0.209 | 0.211 | 1.12 | 0.957 | 0.897 | 0.761 | 0.711 | 0.324 | 0.36 | 0.371 | 0.398 | 0.363
10 | NCI-H1355 | 1.21 | 1.17 | 1.22 | 1.07 | 1.38 | 1.22 | 1.27 | 1.02 | 0.72 | 0.621 | 1.16 | 1.11 | 1.18 | 1.01 | 1.01 | 0.755 | 0.712 | 0.235 | 0.312 | 0.275
11 | NCI-H1915 | 1.01 | 0.907 | 0.966 | 0.962 | 1.01 | 1.16 | 0.94 | 0.958 | 0.653 | 0.314 | 1.09 | 0.899 | 0.868 | 0.93 | 0.86 | 0.33 | 0.3 | 0.236 | 0.186 | 0.188
12 | BEN | 0.646 | 0.656 | 0.708 | 0.621 | 0.49 | 0.747 | 0.655 | 0.321 | 0.306 | 0.303 | 0.818 | 0.869 | 0.631 | 0.318 | 0.303 | 0.276 | 0.238 | 0.174 | 0.186 | 0.232
13 | NCI-H322M | 1.37 | 1.17 | 1.2 | 1.3 | 1.39 | 1.2 | 1.26 | 1.22 | 1.58 | 1.55 | 1.28 | 0.976 | 0.96 | 0.953 | 0.922 | 0.255 | 0.216 | 0.231 | 0.274 | 0.259
14 | HOP-62 | 0.869 | 0.819 | 0.648 | 0.677 | 0.947 | 0.875 | 0.829 | 0.816 | 0.756 | 0.212 | 0.972 | 0.86 | 0.951 | 0.931 | 0.755 | 0.511 | 0.344 | 0.179 | 0.172 | 0.17
15 | HCC-366 | 1 | 1.06 | 1.05 |  | 1.01 | 1.32 | 1.11 | 0.151 | 0.0688 | 0.0348 | 0.738 | 0.537 | 0.575 | 0.0457 | 0.0363 | 0.699 | 0.504 | 0.0838 | 0.0451 | 0.0508
16 | NCI-H2405 | 0.892 | 0.703 | 0.968 |  | 1 | 1.05 | 0.744 | 0.348 | 0.277 | 0.973 | 0.964 | 0.782 | 0.655 | 0.257 | 0.285 | 0.239 | 0.166 | 0.158 | 0.135 | 0.139
